Experimental data reported in US20200330447A1, “CANCER TREATMENT VIA REPOSITIONED TRICYCLIC ANTI-DEPRESSANT-LIKE DRUGS AS ANTI-CANCER AGENTS AND NEW COMBINATIONS OF SUCH DRUGS” (Board of Supervisors of Louisiana State University and …, priority 2015, published 2020).

What was measured:
Format in all cases: cell-based
A172 glioblastoma cells [1] = experiment: Growth factor (HGF, EGF) induced trafficking of lysosomes to cell periphery; details: 10 μM overnight, HGF (33 ng/ml) or EGF (100 ng/ml)
Description: In this embodiment deptropine and pizotifen also block lysosome peripheral movement in glioma cells treated with the growth factors HGF and EGF. Both of these growth factors interact with their receptors, c-Met and EGFR, respectively to induce glioma invasion. In this example, A172 glioblastoma cells were treated overnight with 10 μM deptropine or pizotifen in the presence or absence of HGF (33 ng/ml) or EGF (100 ng/ml). At the end of the incubation time, cells were fixed and stained for LAMP-1, filamentous actin, and nuclei. Representative merged IF images depicting the effect of DMSO, 10 μM deptropine or pizotifen and/or HGF, EGF on the distribution of lysosomes (red in color images) in A172 glioblastoma cells. Also shown here are actin (green in color images) and nuclei (blue in color images).

U373 glioma cell lines = experiment: Lysosome outward movement in U373 cells; details: method of FIG. 2
Description: A172 glioblastoma cells were treated overnight with 5 or 10 μM deptropine or pizotifen or with the deptropine or pizotifen in combination at 5 μM concentration. The next day, media was change to low pHe media containing deptropine or pizotifen and the cells were incubated for an additional 2 h. EIPA is a known inhibitor of lysosomal outward movement and represents the positive control. At the end of the incubation time, cells were fixed and stained for LAMP-1, filamentous actin and nuclei. Representative merged IF images depicting the effect of pHe 7.4, pHe 6.4, DMSO or deptropine and pizotifen on the distribution of lysosomes in A172 glioblastoma cells. On color versions of the Figure, red puncta are lysosomes, blue is nuclei and green is actin. As could be seen, lysosomes appear more peripherally distributed in A172 glioma cells than in cells treated with concentrations of 5 to 10 micromolar deptropine or pizotifen.
In an additional experiment, following the method whose results are shown in FIG. 2 above but with different cells, the broad range and general effectiveness of deptropine and pizotifen is shown beyond just in A172 glioblastoma cells. Specifically, deptropine and pizotifen were applied to U373 glioma cell lines instead of A172 glioblastoma cells.

A172 glioblastoma cells [2] = experiment: Wound invasion through matrigel, Incucyte; details: for invasion: 5 or 10 μM, 8 h prior to wounding and addition of matrigel
Description: An important aspect of this technology is the showing that deptropine and pizotifen block tumor invasion using 3D assays. […] For this experiment A172 glioblastoma cells were treated with 5 or 10 μM deptropine or pizotifen or drug mix at 5 μM concentration for 8 h prior to the wounding and the addition of matrigel. Upon wounding, cells were allowed to migrate or invade through matrigel in the presence of DMSO, 5 or 10 μM deptropine or pizotifen or the drug mix at 5 μM concentration. EIPA, a known inhibitor of lysosomal outward movement, is the positive control. Motility and invasion were calculated by Incucyte platform that acquires real time images of invasion and motility and calculate the relative wound density percentage at different time points. Percent migration (FIG. 6A) or invasion (FIG. 6B) through matrigel in A172 glioblastoma cells in the presence of DMSO, 5 or 10 μM deptropine or pizotifen or the drug mix at 5 μM concentration. Error bars represent s.e.m. of 5 separate experiments. # statistical significance, p<0.001, versus both 1% FBS and DMSO; *, p<0.01 versus both 1% FBS and DMSO

Erk signaling pathway = experiment: Lysosome inward movement in the presence of the MAPK inhibitor U0126, and Erk western blot; details: A172 cells, results not shown
Description: Turning to FIG. 8, deptropine and pizotifen are shown to act through the Erk signaling pathway. In this experiment, A172 cells were treated with deptropine and pizotifen at 5 μM concentrations for 4 hours in the presence of the MAPK inhibitor U0126. I.F. microscopy was then performed. This helped allow the determination of the mechanism of action of deptropine and pizotifen.

mTOR signaling pathway = experiment: Western blot of phosphorylated S6K (mTOR signaling); details: A172 cells, 4 hours
Description: Deptropine and pizotifen were added to A172 cells for 4 hours and western blot analysis was performed to measure levels of phosphorylated S6K, indicative of active mTOR signaling.

LC3-II = experiment: Autophagy: LC3-I/LC3-II western blot and GFP-LC3II microscopy; details: A172 cells, overnight; for levels of LC3-II, western blot: deptropine 5 or 10 micromolar, pizotifen 5 micromolar; for association of GFP-LC3-II with puncta representing autophagosomes: microscopy
Description: A further embodiment of this technology is the use of deptropine and pizotifen to induce autophagy. A172 cells were treated with EIPA (1), Serum (2), Serum Free (3), DMSO (4, solvent control), rapamycin 0.5 micromolar (5), one micromolar (6), deptropine at 5 micromolar (7), 10 micromolar (8) or pizotifen at 5 micromolar (9) overnight and GFP-LC3II was visualized by microscopy or western blot analysis was performed to detect LC3-I and LC3-II forms.

A172 cells = experiment: Standard MTS assay (proliferation); details: concentrations up to 10 micromolar
Description: A very beneficial aspect of the treatment with deptropine and pizotifen is shown in FIG. 11, namely that the actions of deptropine and pizotifen are not the result of toxicity. The standard MTS assay was performed for A172 cells in the presence of the indicate concentrations of deptropine and pizotifen.

For CN1[C@@H]2CC[C@H]1C[C@@H](OC1c3ccccc3CCc3ccccc31)C2 [deptropine, 3a-[(10, 11-dihydro-5H-dibenzo[a,d]cyclohepten-5-yl)oxy]1aH,5aH-tropane], the “trafficking of lysosomes to cell periphery induced by growth factors” value (A172 glioblastoma cells [1]) was “block trafficking of lysosomes to cell periphery”, the lysosome outward movement (U373 glioma cell lines) was “block lysosome outward movement” and the invasion (A172 glioblastoma cells [2]) was “decrease”. The “Erk signaling pathway, western blot” value (Erk signaling pathway) was “activate the Erk signaling pathway”, the “phosphorylation of S6K” value (mTOR signaling pathway) was “eliminates the phosphorylation of S6K” and the “levels of LC3-II, western blot” value (LC3-II) was “increases the levels of the proteins LC3-II”. For the same compound, the “association of GFP-LC3-II with puncta representing autophagosomes” value (LC3-II) was “increase the association GFP-LC3-II with puncta” and the “proliferation (MTS)” value (A172 cells) was “do not inhibit proliferation”.

In the case of CN1CCC(=C2c3ccccc3CCc3sccc32)CC1 [pizotifen, 4-(1-methyl-4-piperidylidine)-9,10-dihydro-4H-benzo-[4,5]cyclohepta[1,2]-thiophene], the “trafficking of lysosomes to cell periphery induced by growth factors” value (A172 glioblastoma cells [1]) is reported as “block trafficking of lysosomes to cell periphery”, the lysosome outward movement (U373 glioma cell lines) is reported as “block lysosome outward movement” and the “invasion through matrigel (percent invasion)” value (A172 glioblastoma cells [2]; 10 μM) is reported as “significantly reduces invasion”. For the same compound, the invasion (A172 glioblastoma cells [2]) was “decrease”, the “Erk signaling pathway, western blot” value (Erk signaling pathway) was “activate the Erk signaling pathway” and the “phosphorylation of S6K” value (mTOR signaling pathway) was “eliminates the phosphorylation of S6K”. For the same compound, the “levels of LC3-II, western blot” value (LC3-II) was “increases the levels of the proteins LC3-II”, the “association of GFP-LC3-II with puncta representing autophagosomes” value (LC3-II) was “increase the association GFP-LC3-II with puncta” and the “proliferation (MTS)” value (A172 cells) was “do not inhibit proliferation”.
